Results: patent US20160235727A1, “NOVEL PYRROLIDINE DERIVED BETA 3 ADRENERGIC RECEPTOR AGONISTS” (Merck Sharp & Dohme Corp., priority 2013, published 2016)

Target: T1, human β3-AR (Homo sapiens, UniProt P13945)
T1 construct: expressed in transfected cells; host or cells: CHO (Chinese hamster ovary) cells, stably transfected
Assay: cAMP functional agonist assay (LANCE TR-FRET) in CHO cells expressing cloned human β3-AR
Type: cell-based
Conditions: for EC50: CHO cells stably expressing cloned human β3-adrenoceptor, cAMP release, read-out: Human β3-AR Agonism EC50; for Fold drop in potency vs. 2-chloropyridine analog: EC50 of comparative example divided by EC50 of corresponding 2-chloropyridine compound; for Human β3-AR Agonist Activity (%): percent maximum activation relative to isoproterenol

T1 sequence (P13945 whole entry): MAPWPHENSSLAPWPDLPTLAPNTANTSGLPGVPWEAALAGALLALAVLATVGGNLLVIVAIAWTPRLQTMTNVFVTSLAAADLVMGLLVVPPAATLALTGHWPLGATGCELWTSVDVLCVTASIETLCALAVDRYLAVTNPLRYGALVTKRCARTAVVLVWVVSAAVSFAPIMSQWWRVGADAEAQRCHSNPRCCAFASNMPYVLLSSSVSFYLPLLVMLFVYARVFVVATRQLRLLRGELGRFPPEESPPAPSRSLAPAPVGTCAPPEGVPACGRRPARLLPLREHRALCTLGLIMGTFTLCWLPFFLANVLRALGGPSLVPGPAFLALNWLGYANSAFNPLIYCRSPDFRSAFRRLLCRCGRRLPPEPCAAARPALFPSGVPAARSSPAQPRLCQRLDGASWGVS

Row | EC50 [µM] | Fold drop in potency vs. 2-chloropyridine analog [fold] | Human β3-AR Agonist Activity (%) | Compound
1 | 0.175 |  | 87 | CN(Cc1ccc(=O)[nH]c1)C(=O)c1ccc(C[C@@H]2CC[C@H]([C@H](O)c3ccc(Cl)nc3)N2)cc1 [Example 28-A, 4-(((2S,5R)-5-((R)-(6-chloropyridin-3-yl)(hydroxy)methyl)pyrrolidin-2-yl)methyl)-N-methyl-N-((6-oxo-1,6-dihydropyridin-3-yl)methyl)benzamide]
2 | 0.816 | 4.7 | 78 | CN(Cc1ccc(=O)[nH]c1)C(=O)c1ccc(C[C@@H]2CC[C@H]([C@H](O)c3cccc(F)c3)N2)cc1 [Example 28-C, 4-(((2S,5R)-5-((R)-(3-fluorophenyl)(hydroxy)methyl)pyrrolidin-2-yl)methyl)-N-methyl-N-((6-oxo-1,6-dihydropyridin-3-yl)methyl)benzamide]
3 | 0.732 | 4.2 | 88 | CN(Cc1ccc(=O)[nH]c1)C(=O)c1ccc(C[C@@H]2CC[C@H]([C@H](O)c3ccc(F)cc3)N2)cc1 [Example 28-F, 4-(((2S,5R)-5-((R)-(4-fluorophenyl)(hydroxy)methyl)pyrrolidin-2-yl)methyl)-N-methyl-N-((6-oxo-1,6-dihydropyridin-3-yl)methyl)benzamide]
4 | 0.017 |  | 94 | COc1ccc(CN(C)C(=O)c2ccc(C[C@@H]3CC[C@H]([C@H](O)c4ccc(Cl)nc4)N3)cc2)cn1 [Example 29-A, 4-(((2S,5R)-5-((R)-(6-chloropyridin-3-yl)(hydroxy)methyl)pyrrolidin-2-yl)methyl)-N-((6-methoxypyridin-3-yl)methyl)-N-methylbenzamide]
5 | 0.086 | 5.1 | 99 | COc1ccc(CN(C)C(=O)c2ccc(C[C@@H]3CC[C@H]([C@H](O)c4ccccc4)N3)cc2)cn1 [Example 29-B, 4-(((2S,5R)-5-((R)-hydroxy(phenyl)methyl)pyrrolidin-2-yl)methyl)-N-((6-methoxypyridin-3-yl)methyl)-N-methylbenzamide]
6 | 0.003 |  | 99 | CN(Cc1ccc(Cl)nc1)C(=O)c1ccc(C[C@@H]2CC[C@H]([C@H](O)c3ccc(Cl)nc3)N2)cc1 [Example 30-A, 4-(((2S,5R)-5-((R)-(6-chloropyridin-3-yl)(hydroxy)methyl)pyrrolidin-2-yl)methyl)-N-((6-chloropyridin-3-yl)methyl)-N-methylbenzamide]
7 | 0.028 | 8.9 | 100 | CN(Cc1ccc(Cl)nc1)C(=O)c1ccc(C[C@@H]2CC[C@H]([C@H](O)c3ccccc3)N2)cc1 [Example 30-B, N-((6-chloropyridin-3-yl)methyl)-4-(((2S,5R)-5-((R)-hydroxy(phenyl)methyl)pyrrolidin-2-yl)methyl)-N-methylbenzamide]
8 | 0.078 | 24.4 | 101 | CN(Cc1ccc(Cl)nc1)C(=O)c1ccc(C[C@@H]2CC[C@H]([C@H](O)c3ccc(F)cc3)N2)cc1 [Example 30-F, N-((6-chloropyridin-3-yl)methyl)-4-(((2S,5R)-5-((R)-(4-fluorophenyl)(hydroxy)methyl)pyrrolidin-2-yl)methyl)-N-methylbenzamide]
9 | 0.007 |  | 96 | CC(O)c1cncc(CN(C)C(=O)c2ccc(C[C@@H]3CC[C@H]([C@H](O)c4ccc(Cl)nc4)N3)cc2)c1 (stereo partly drawn) [Example 31-A, (((2S,5R)-5-((R)-(6-chloropyridin-3-yl)(hydroxy)methyl)pyrrolidin-2-yl)methyl)-N-((5-(1-hydroxyethyl)pyridin-3-yl)methyl)-N-methylbenzamide]
10 | 0.016 | 2.3 | 104 | CC(O)c1cncc(CN(C)C(=O)c2ccc(C[C@@H]3CC[C@H]([C@H](O)c4ccccc4)N3)cc2)c1 (stereo partly drawn) [Example 31-B, 4-(((2S,5R)-5-((R)-hydroxy(phenyl)methyl)pyrrolidin-2-yl)methyl)-N-((5-(1-hydroxyethyl)pyridin-3-yl)methyl)-N-methylbenzamide]
11 | 0.013 |  | 94 | CN(Cc1cncc(C(C)(C)O)c1)C(=O)c1ccc(C[C@@H]2CC[C@H]([C@H](O)c3ccc(Cl)nc3)N2)cc1 [Example 32-A, 4-(((2S,5R)-5-((R)-(6-chloropyridin-3-yl)(hydroxy)methyl)pyrrolidin-2-yl)methyl)-N-((5-(2-hydroxypropan-2-yl)pyridin-3-yl)methyl)-N-methylbenzamide]
12 | 0.022 | 1.8 | 109 | CN(Cc1cncc(C(C)(C)O)c1)C(=O)c1ccc(C[C@@H]2CC[C@H]([C@H](O)c3ccccc3)N2)cc1 [Example 32-B, 4-(((2S,5R)-5-((R)-hydroxy(phenyl)methyl)pyrrolidin-2-yl)methyl)-N-((5-(2-hydroxypropan-2-yl)pyridin-3-yl)methyl)-N-methylbenzamide]
13 | 0.016 | 1.2 | 98 | CN(Cc1cncc(C(C)(C)O)c1)C(=O)c1ccc(C[C@@H]2CC[C@H]([C@H](O)c3ccc(Cl)cc3)N2)cc1 [Example 32-G, 4-(((2S,5R)-5-((R)-(4-chlorophenyl)(hydroxy)methyl)pyrrolidin-2-yl)methyl)-N-((5-(2-hydroxypropan-2-yl)pyridin-3-yl)methyl)-N-methylbenzamide]
14 | 0.044 |  | 101 | CN(Cc1cncc(C(=O)O)c1)C(=O)c1ccc(C[C@@H]2CC[C@H]([C@H](O)c3ccc(Cl)nc3)N2)cc1 [Example 33-A, 5-((4-(((2S,5R)-5-((R)-(6-chloropyridin-3-yl)(hydroxy)methyl)pyrrolidin-2-yl)methyl)-N-methylbenzamido)methyl)nicotinic acid]
15 | 0.087 | 87.0 | 111 | CN(Cc1cncc(C(=O)O)c1)C(=O)c1ccc(C[C@@H]2CC[C@H]([C@H](O)c3ccccc3)N2)cc1 [Example 33-B, 5-((4-(((2S,5R)-5-((R)-hydroxy(phenyl)methyl)pyrrolidin-2-yl)methyl)-N-methylbenzamido)methyl)nicotinic acid]
16 | 0.063 | 1.4 | 102 | CN(Cc1cncc(C(=O)O)c1)C(=O)c1ccc(C[C@@H]2CC[C@H]([C@H](O)c3ccc(Cl)cc3)N2)cc1 [Example 33-G, 5-((4-(((2S,5R)-5-((R)-(4-chlorophenyl)(hydroxy)methyl)pyrrolidin-2-yl)methyl)-N-methylbenzamido)methyl)nicotinic acid]
17 | 0.006 |  | 90 | COC(=O)c1cncc(CN(C)C(=O)c2ccc(C[C@@H]3CC[C@H]([C@H](O)c4ccc(Cl)nc4)N3)cc2)c1 [Example 34-A, Methyl 5-((4-(((2S,5R)-5-((R)-(6-chloropyridin-3-yl)(hydroxy)methyl)pyrrolidin-2-yl)methyl)-N-methylbenzamido)methyl)nicotinate]
18 | 0.014 | 2.3 | 101 | COC(=O)c1cncc(CN(C)C(=O)c2ccc(C[C@@H]3CC[C@H]([C@H](O)c4ccccc4)N3)cc2)c1 [Example 34-B, Methyl 5-((4-(((2S,5R)-5-((R)-hydroxy(phenyl)methyl)pyrrolidin-2-yl)methyl)-N-methylbenzamido)methyl)nicotinate]
19 | 0.017 |  | 91 | CN(Cc1cncc(C#N)c1)C(=O)c1ccc(C[C@@H]2CC[C@H]([C@H](O)c3ccc(Cl)nc3)N2)cc1 [Example 35-A, 4-(((2S,5R)-5-((R)-(6-chloropyridin-3-yl)(hydroxy)methyl)pyrrolidin-2-yl)methyl)-N-((5-cyanopyridin-3-yl)methyl)-N-methylbenzamide]
20 | 0.062 | 3.6 | 102 | CN(Cc1cncc(C#N)c1)C(=O)c1ccc(C[C@@H]2CC[C@H]([C@H](O)c3ccccc3)N2)cc1 [Example 35-B, N-((5-cyanopyridin-3-yl)methyl)-4-(((2S,5R)-5-((R)-hydroxy(phenyl)methyl)pyrrolidin-2-yl)methyl)-N-methylbenzamide]
21 | 0.014 |  | 92 | Cc1nnc(-c2cncc(CN(C)C(=O)c3ccc(C[C@@H]4CC[C@H]([C@H](O)c5ccc(Cl)nc5)N4)cc3)c2)o1 [Example 36-A, 4-(((2S,5R)-5-((R)-(6-chloropyridin-3-yl)(hydroxy)methyl)pyrrolidin-2-yl)methyl)-N-methyl-N-((5-(5-methyl-1,3,4-oxadiazol-2-yl)pyridin-3-yl)methyl)benzamide]

Row | Compound | EC50 [µM] | Fold drop in potency vs. 2-chloropyridine analog [fold] | Human β3-AR Agonist Activity (%)
22 | O=C(c1ccc(C[C@@H]2CC[C@H]([C@H](O)c3cccnc3)N2)cc1)N(CCO)Cc1cccnc1F [Example 27-H, N-((2-fluoropyridin-3-yl)methyl)-4-(((2S,5R)-5-((R)-hydroxy(pyridin-3-yl)methyl)pyrrolidin-2-yl)methyl)-N-(2-hydroxyethyl)benzamide] | 1.39 | 288.6 | 78
23 | COC(=O)c1cncc(CN(C)C(=O)c2ccc(C[C@@H]3CC[C@H]([C@H](O)c4ccc(Cl)cc4)N3)cc2)c1 [Example 34-G, Methyl 5-((4-(((2S,5R)-5-((R)-(4-chlorophenyl)(hydroxy)methyl)pyrrolidin-2-yl)methyl)-N-methylbenzamido)methyl)nicotinate] | 0.018 | 2.9 | 90
